In patent US20170105951A1, “COMBINATION THERAPY WITH THIOCOLCHICINE DERIVATIVES” (Abraxis BioScience, LLC, priority 2009, published 2017):

Assays:
[1] = system: human PC3 prostate cancer xenograft; test: Subcutaneous PC3 prostate tumor xenograft, tumor growth inhibition; type: in vivo, athymic nude mice; settings: Avastin 8 mg/kg 2x/wk
Procedure: (§1) Methods: Subcutaneous human breast (MDA-MB-231), colon (HT29) and prostate (PC3) tumors were grown in athymic nude mice and treated intravenously (IV) with sub-optimal dose of ABI-011 alone at 20 mg/kg (q4d×3, q4d×2, or qd×1) and in combination with nab-paclitaxel (5 mg/kg, q4d×3, IV) or bevacizumab (8 mg/kg, 2×wkly, IP). The effect of dose, schedule, and sequence of combination regimen on therapeutic efficacy was tested. ABI-011 was administered 24 h before, concurrent with, or 24 h after nab-paclitaxel or bevacizumab treatment.

[2] = Body weight change in PC3 tumor-bearing mice; type: in vivo, athymic nude mice; settings: Avastin 8 mg/kg 2x/wk
Procedure: as §1

[3] = system: human HT29 colon cancer xenograft; test: Subcutaneous HT29 colon tumor xenograft, antitumor activity (Example 1); type: in vivo, athymic nude mice; settings: Avastin 8 mg/kg 2x/wk
Procedure: as §1

[4] = system: human colon (HT29) tumors; test: Subcutaneous HT29 colon tumor xenograft, ABI-011 vs CA4P (Example 3); type: in vivo, athymic nude mice; settings: CA4P 200 mg/kg, qd×4, IV
Procedure: (§2) Methods: The antiangiogenic and VDA effects of ABI-011 were examined in vitro using tubule formation assay with human umbilical vein endothelial cells (HUVEC) and in vivo using the standard chick embryonic chorioallantoic membrane (CAM) assay with 3-day old embryos (n=18). The shell-less quail embryonic CAM assay was used to determine the time course of VDAs (ABI-011 vs. combretastatin A4 Phosphate [CA4P]). Quail embryos (n=36) were exposed to ABI-011 (1 to 16 μg/ml) on day 7 and digital CAM images were acquired over a 60 min period for scoring VDA. Subcutaneous human colon (HT29) tumors were grown in athymic nude mice and treated intravenously (IV) with ABI-011 (20-40 mg/kg; q4d×3, IV) or CA4P (200 mg/kg; qd×4, IV). The animal weights and tumor measurements were recorded three times weekly and adverse observations recorded.

[5] = system: quail embryonic CAM vasculature; test: Shell-less quail embryonic CAM assay, vascular disrupting activity; type: in vivo
Procedure: as §2

Compound | TGI, tumor growth inhibition on day 23 [1] | BWC, percent body weight change on day 21 [2] | TGI, tumor growth inhibition on day 23 [3] | Three-TDT [3] | Antitumor efficacy, in words [4] | Vascular disrupting activity (VDA), in words ([5]; quail CAM, at concentrations much higher than the effective dose of ABI-011) | IC50, vascular disrupting activity (VDA) ([5]; quail embryonic CAM, scored over 60 min) | LD50, embryonic mortalities ([5]; quail embryos)
Avastin: anti-VEGF antibody (bevacizumab) | 52.9% | −24.6% | 75.3% | 19.3 days | – | – | – | –
COc1ccc(/C=C\c2cc(OC)c(OC)c(OC)c2)cc1OP(=O)(O)O [CA4P, combretastatin A4 Phosphate] | – | – | – | – | ineffective | only modest VDA | 13.1 µg/mL | 12.8 µg/mL
